From EP1550446A1, “Use of 1-(5-isoquinolinesulfonyl) homopiperazine for treating and preventing hypopigmentary disorders” (priority 2003, dated 2005)

Experiments:
[1] = tested on: human melanoma cell line (Mel-Ho); assay: Melanocyte dendrite outgrowth assay; format: cell-based; conditions: Mel-Ho cells; for dendrite formation (dendricity): 100 µM, treated for 24 hours, digital photography (Figure 1)
Text: A possibility to test the effect of a compound on melanocyte function as a measure for pigmentation, the melanocyte dendrite outgrowth assay can be performed. Vitiligo melanocytes for example have only stubby dendrites. Increasing dendricity as a prerequisite for the transfer of the melanosomes from melanocytes to the surrounding keratinocytes rescues this defect. For this assay, cells from a human melanoma cell line (Mel-Ho) were obtained from DSMZ (Deutsche Sammlung für Mikroorganismen und Zellkulturen) and were cultured according to the protocol provided by DSMZ. In short, after thawing the melanocytes were cultured in T-75 flasks in melanocyte culture media (provided by the manufacturer) until they reach 70-80% confluency. The melanocytes were then trypsinized, transferred into 5-10 new T-75 flasks, and grown again to same confluency as described above. After this expansion step the melanocytes were immediately used for the Melanocyte Dendrite Outgrowth Assay or were frozen for later use. […] Forskolin is known to cause increased melanocyte dendricity and was used as a positive control. […] Melanocyte dendrite outgrowth was documented by digital photography (Canon G2 Powershot) after 3, 6 and 24 hours.

[2] = tested on: normal human epidermal keratinocytes (neonatal keratinocytes, NHEK)
Protocol: To test a possible cytotoxic effect resulting in a morphological change of keratinocytes, normal human epidermal keratinocytes were obtained from Clonetics (neonatal keratinocytes, NHEK) and were cultured according to the manufacturers' protocol. In short, after thawing, the keratinocytes were cultured in T-75 flasks in keratinocyte culture media (provided by the manufacturer) until they reached 70-80% confluency. The keratinocytes were then trypsinized, transferred into new T-75 flasks at a density of 3500 cells/cm^2. After this expansion step the keratinocytes were immediately used for the cytotoxic assay procedure or were frozen for later use. […] Cells treated with media only were used as a negative control. Photos were taken at 3, 6 and 24 hours after stimulation for documentary reasons.

Row | Compound | dendrite formation (dendricity) [1] | dendrite formation ([1]; concentrations lower than 100 µM) | morphological changes as a measure for cytotoxicity (HaCaT keratinocytes) | morphological changes as a measure for cytotoxicity [2]
1 | Cl.Cl.O=S(=O)(c1cccc2cnccc12)N1CCCNCC1 [1-(5-isoquinolinesulfonyl)homopiperazine dihydrochloride] | dendricity was strongly stimulated | sufficient to induce dendrite formation | No morphological changes | No morphological changes
2 | O=S(=O)(c1cccc2cnccc12)N1CCCNCC1 [1-(5-isoquinolinesulfonyl)homopiperazine] | strong dendrite formation | – | normal morphology | normal morphology
